Experimental data: patent US7138361B2, “Herbicidal heterocycles” (E. I. du Pont de Nemours and Company, priority 2000, dated 2006)

Columns and labels:
Type in all cases: in vivo
[1] = system: common ragweed (Ambrosia elatior); experiment: Test C postemergence
How it was run: (§1)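 Compounds in non-phytotoxic solvent with surfactant applied preemergence to planted seeds and postemergence to plants at 1- to 4-leaf stage (2–18 cm). Kept in greenhouse 12–14 days, then visually rated against controls on a 0 (no effect) to 100 (complete control) scale.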

soybean (Glycine max) = experiment: Test C postemergence
How it was run: as §1

[2] = system: yellow nutsedge (Cyperus esculentus); experiment: Test C postemergence
How it was run: as §1

[3] = system: giant foxtail (Setaria faberii); experiment: Test C postemergence
How it was run: as §1

[4] = system: bermudagrass (Cynodon dactylon); experiment: Test C postemergence
How it was run: as §1

[5] = system: lambsquarters (Chenopodium album); experiment: Test C postemergence
How it was run: as §1

[6] = system: johnsongrass (Sorghum halepense); experiment: Test C postemergence
How it was run: as §1

[7] = system: woolly cupgrass (Eriochloa villosa); experiment: Test C postemergence
How it was run: as §1

[8] = system: cocklebur (Xanthium strumarium); experiment: Test C postemergence
How it was run: as §1

[9] = system: morningglory (Ipomoea hederacea); experiment: Test C postemergence
How it was run: as §1

corn (Zea mays) [10] = experiment: Test C postemergence
How it was run: as §1

kochia (Kochia scoparia) [11] = experiment: Test C postemergence
How it was run: as §1

[12] = system: Surinam grass (Brachiaria decumbens); experiment: Test C postemergence
How it was run: as §1

[13] = system: crabgrass (Digitaria sanguinalis); experiment: Test C postemergence
How it was run: as §1

[14] = system: goosegrass (Eleusine indica); experiment: Test C postemergence
How it was run: as §1

[15] = system: pigweed (Amaranthus retroflexus); experiment: Test C postemergence
How it was run: as §1

[16] = system: velvetleaf (Abutilon theophrasti); experiment: Test C postemergence
How it was run: as §1

[17] = system: morningglory (Ipomoea hederacea); experiment: Test C preemergence; settings: for Plant response rating (0 to 100), Morningglory: Rate 500 g/ha, visual evaluation after 12 to 14 days
How it was run: as §1

corn (Zea mays) [18] = experiment: Test C preemergence; settings: for Plant response rating (0 to 100), Corn: Rate 500 g/ha, visual evaluation after 12 to 14 days
How it was run: as §1

kochia (Kochia scoparia) [19] = experiment: Test C preemergence; settings: for Plant response rating (0 to 100), Kochia: Rate 500 g/ha, visual evaluation after 12 to 14 days
How it was run: as §1

[20] = system: Surinam grass (Brachiaria decumbens); experiment: Test C preemergence; settings: for Plant response rating (0 to 100), Surinam grass: Rate 500 g/ha, visual evaluation after 12 to 14 days
How it was run: as §1

Sunflower = experiment: Test C preemergence; settings: Rate 500 g/ha, visual evaluation after 12 to 14 days
[21] = system: chickweed (Stellaria media); experiment: Test C postemergence
How it was run: as §1

[22] = Rate 500 g/ha, scale 0 to 100 (0 no effect, 100 complete control)
[23] = Rate 250 g/ha, scale 0 to 100 (0 no effect, 100 complete control)
[24] = Rate 125 g/ha, scale 0 to 100, 0 no effect, 100 complete control
[25] = preemergence, Rate 62 g/ha, scale 0 to 100
[26] = preemergence, Rate 250 g/ha, scale 0 to 100, 0 no effect, 100 complete control

SMILES: COc1cc(N2CCC(n3ccc(C(C)(C)C)n3)C2=O)ccc1Cl (stereo not shown) [Compound 117]
- Plant response rating, Ragweed, Common [1, 22]: 90
- Plant response rating, Soybean (soybean (Glycine max); Rate 62 g/ha, scale 0 to 100): 50
- Plant response rating, Soybean (soybean (Glycine max); [23]): 85
- Plant response rating, Soybean (soybean (Glycine max); [22]): 90
- Plant response rating, Nutsedge ([2]; Rate 62 g/ha, scale 0 to 100): 0
- Plant response rating, Nutsedge [2, 23]: 0
- Plant response rating, Nutsedge [2, 22]: 0
- Plant response rating, Foxtail, Giant ([3]; Rate 62 g/ha, scale 0 to 100): 0
- Plant response rating, Foxtail, Giant [3, 23]: 30
- Plant response rating, Foxtail, Giant [3, 22]: 60
- Plant response rating, Bermudagrass ([4]; Rate 62 g/ha, scale 0 to 100): 0
- Plant response rating, Bermudagrass [4, 24]: 50
- Plant response rating, Bermudagrass [4, 23]: 50
- Plant response rating, Bermudagrass [4, 22]: 95
- Plant response rating, Lambsquarters ([5]; Rate 62 g/ha, scale 0 to 100): 75
- Plant response rating, Lambsquarters [5, 23]: 95
- Plant response rating, Lambsquarters [5, 22]: 100
- Plant response rating, Johnsongrass ([6]; Rate 62 g/ha, scale 0 to 100): 0
- Plant response rating, Johnsongrass [6, 23]: 0
- Plant response rating, Johnsongrass [6, 22]: 0
- Plant response rating, Johnsongrass ([6]; rate not given, scale 0 to 100): 0
- Plant response rating, Cupgrass, Woolly ([7]; Rate 62 g/ha, scale 0 to 100): 0
- Plant response rating, Cupgrass, Woolly [7, 23]: 40
- Plant response rating, Cupgrass, Woolly [7, 22]: 45
- Plant response rating, Cocklebur ([8]; Rate 62 g/ha, scale 0 to 100): 0
- Plant response rating, Cocklebur [8, 23]: 85
- Plant response rating, Cocklebur [8, 22]: 100
- Plant response rating, Morningglory ([9]; Rate 62 g/ha, scale 0 to 100): 100
- Plant response rating, Morningglory [9, 23]: 100
- Plant response rating, Morningglory [9, 22]: 100
- Plant response rating, Corn (corn (Zea mays) [10]; Rate 62 g/ha, scale 0 to 100): 0
- Plant response rating, Corn (corn (Zea mays) [10]; [23]): 0
- Plant response rating, Corn (corn (Zea mays) [10]; [22]): 10
- Plant response rating, Corn (corn (Zea mays) [10]; scale 0 to 100): 0
- Plant response rating, Kochia (kochia (Kochia scoparia) [11]; Rate 62 g/ha, scale 0 to 100): 80
- Plant response rating, Kochia (kochia (Kochia scoparia) [11]; [23]): 85
- Plant response rating, Kochia (kochia (Kochia scoparia) [11]; [22]): 90
- Plant response rating, Surinam grass ([12]; Rate 62 g/ha, scale 0 to 100): 0
- Plant response rating, Surinam grass [12, 24]: 0
- Plant response rating, Surinam grass [12, 23]: 0
- Plant response rating, Surinam grass [12, 22]: 15
- Plant response rating, Crabgrass ([13]; Rate 62 g/ha, scale 0 to 100): 0
- Plant response rating, Crabgrass [13, 23]: 10
- Plant response rating, Crabgrass [13, 22]: 10
- Plant response rating, Goosegrass ([14]; Rate 62 g/ha, scale 0 to 100): 10
- Plant response rating, Goosegrass [14, 23]: 70
- Plant response rating, Goosegrass [14, 22]: 100
- Plant response rating, Pigweed ([15]; Rate 62 g/ha, scale 0 to 100): 60
- Plant response rating, Pigweed [15, 23]: 90
- Plant response rating, Pigweed [15, 22]: 100
- Plant response rating, Velvetleaf ([16]; Rate 62 g/ha, scale 0 to 100): 20
- Plant response rating, Velvetleaf [16, 23]: 35
- Plant response rating, Velvetleaf [16, 22]: 60
- Plant response rating, Velvetleaf ([16]; scale 0 to 100): 35
- Plant response rating, Morningglory [17, 24]: 10
- Plant response rating, Morningglory [17, 25]: 0
- Plant response rating (0 to 100), Morningglory ([17]; preemergence): 100
- Plant response rating, Morningglory [17, 26]: 100
- Plant response rating, Corn (corn (Zea mays) [18]; [24]): 30
- Plant response rating, Corn (corn (Zea mays) [18]; [25]): 0
- Plant response rating (0 to 100), Corn (corn (Zea mays) [18]; preemergence): 50
- Plant response rating, Corn (corn (Zea mays) [18]; [26]): 45
- Plant response rating, Kochia (kochia (Kochia scoparia) [19]; [24]): 100
- Plant response rating, Kochia (kochia (Kochia scoparia) [19]; [25]): 90
- Plant response rating (0 to 100), Kochia (kochia (Kochia scoparia) [19]; preemergence): 100
- Plant response rating, Kochia (kochia (Kochia scoparia) [19]; [26]): 100
- Plant response rating, Surinam grass [20, 24]: 10
- Plant response rating, Surinam grass [20, 25]: 10
- Plant response rating (0 to 100), Surinam grass ([20]; preemergence): 100
- Plant response rating, Surinam grass [20, 26]: 75
- Plant response rating (0 to 100), Sunflower (Sunflower): 65

SMILES: COc1cc(N2CCC(n3ccc(C(C)C)n3)C2=O)ccc1Br (stereo not shown) [Compound 140]
- Plant response rating, Ragweed, Common ([1]; Rate 62 g/ha, scale 0 to 100): 50
- Plant response rating, Ragweed, Common [1, 23]: 90
- Plant response rating, Ragweed, Common [1, 22]: 90
- Plant response rating, Soybean (soybean (Glycine max); Rate 62 g/ha, scale 0 to 100): 70
- Plant response rating, Soybean (soybean (Glycine max); [23]): 90
- Plant response rating, Soybean (soybean (Glycine max); [22]): 90
- Plant response rating, Nutsedge ([2]; Rate 62 g/ha, scale 0 to 100): 0
- Plant response rating, Nutsedge [2, 23]: 20
- Plant response rating, Foxtail, Giant [3, 23]: 90
- Plant response rating, Foxtail, Giant [3, 22]: 90
- Plant response rating, Bermudagrass ([4]; Rate 62 g/ha, scale 0 to 100): 30
- Plant response rating, Bermudagrass [4, 24]: 40
- Plant response rating, Bermudagrass [4, 23]: 70
- Plant response rating, Bermudagrass [4, 22]: 90
- Plant response rating, Lambsquarters ([5]; Rate 62 g/ha, scale 0 to 100): 80
- Plant response rating, Lambsquarters [5, 23]: 90
- Plant response rating, Lambsquarters [5, 22]: 100
- Plant response rating, Johnsongrass ([6]; Rate 62 g/ha, scale 0 to 100): 30
- Plant response rating, Johnsongrass [6, 23]: 50
- Plant response rating, Johnsongrass [6, 22]: 50
- Plant response rating, Johnsongrass ([6]; rate not given, scale 0 to 100): 30
- Plant response rating, Cupgrass, Woolly ([7]; Rate 62 g/ha, scale 0 to 100): 40
- Plant response rating, Cupgrass, Woolly [7, 23]: 70
- Plant response rating, Cupgrass, Woolly [7, 22]: 70
- Plant response rating, Cocklebur ([8]; Rate 62 g/ha, scale 0 to 100): 40
- Plant response rating, Cocklebur [8, 23]: 80
- Plant response rating, Cocklebur [8, 22]: 100
- Plant response rating, Morningglory ([9]; Rate 62 g/ha, scale 0 to 100): 60
- Plant response rating, Morningglory [9, 23]: 100
- Plant response rating, Morningglory [9, 22]: 100
- Plant response rating, Corn (corn (Zea mays) [10]; Rate 62 g/ha, scale 0 to 100): 0
- Plant response rating, Corn (corn (Zea mays) [10]; [23]): 0
- Plant response rating, Corn (corn (Zea mays) [10]; [22]): 0
- Plant response rating, Corn (corn (Zea mays) [10]; scale 0 to 100): 0
- Plant response rating, Kochia (kochia (Kochia scoparia) [11]; Rate 62 g/ha, scale 0 to 100): 40
- Plant response rating, Kochia (kochia (Kochia scoparia) [11]; [23]): 90
- Plant response rating, Kochia (kochia (Kochia scoparia) [11]; [22]): 90
- Plant response rating, Surinam grass ([12]; Rate 62 g/ha, scale 0 to 100): 30
- Plant response rating, Surinam grass [12, 24]: 30
- Plant response rating, Surinam grass [12, 23]: 90
- Plant response rating, Crabgrass ([13]; Rate 62 g/ha, scale 0 to 100): 40
- Plant response rating, Crabgrass [13, 23]: 70
- Plant response rating, Crabgrass [13, 22]: 70
- Plant response rating, Goosegrass ([14]; Rate 62 g/ha, scale 0 to 100): 20
- Plant response rating, Goosegrass [14, 23]: 80
- Plant response rating, Pigweed ([15]; Rate 62 g/ha, scale 0 to 100): 30
- Plant response rating, Pigweed [15, 23]: 80
- Plant response rating, Pigweed [15, 22]: 80
- Plant response rating, Chickweed ([21]; Rate 62 g/ha, scale 0 to 100): 90
- Plant response rating, Chickweed [21, 24]: 100
- Plant response rating, Velvetleaf ([16]; Rate 62 g/ha, scale 0 to 100): 20
- Plant response rating, Velvetleaf [16, 23]: 70
- Plant response rating, Velvetleaf [16, 22]: 70
- Plant response rating, Velvetleaf ([16]; scale 0 to 100): 20
- Plant response rating, Morningglory [17, 24]: 90
- Plant response rating, Morningglory [17, 25]: 70
- Plant response rating (0 to 100), Morningglory ([17]; preemergence): 100
- Plant response rating, Morningglory [17, 26]: 100
- Plant response rating, Corn (corn (Zea mays) [18]; [24]): 20
- Plant response rating, Corn (corn (Zea mays) [18]; [25]): 20
- Plant response rating (0 to 100), Corn (corn (Zea mays) [18]; preemergence): 30
- Plant response rating, Corn (corn (Zea mays) [18]; [26]): 30
- Plant response rating, Kochia (kochia (Kochia scoparia) [19]; [24]): 100
- Plant response rating, Kochia (kochia (Kochia scoparia) [19]; [25]): 100
- Plant response rating (0 to 100), Kochia (kochia (Kochia scoparia) [19]; preemergence): 100
- Plant response rating, Kochia (kochia (Kochia scoparia) [19]; [26]): 100
- Plant response rating, Surinam grass [20, 24]: 0
- Plant response rating, Surinam grass [20, 25]: 0
- Plant response rating (0 to 100), Surinam grass ([20]; preemergence): 100
- Plant response rating, Surinam grass [20, 26]: 90
- Plant response rating (0 to 100), Sunflower (Sunflower): 90
